From ChEMBL document CHEMBL1141736, “DNA polymerase and topoisomerase II inhibitors from Psoralea corylifolia” (J Nat Prod, 1998)
Each block holds one molecule with its values, some of them ahead of it. Active and inactive are the calls of the source. The calls are words filed in the database; no cut-off is given here.

Legend:
Type in all cases: cell-based
[1] = molecular target: DNA topoisomerase 2-alpha (Homo sapiens, UniProt P11388); experiment: Inhibition of DNA topoisomerase 2 in human HeLa cells by kinetoplast DNA decantation assay
Sequence of DNA topoisomerase 2-alpha (P11388 whole entry): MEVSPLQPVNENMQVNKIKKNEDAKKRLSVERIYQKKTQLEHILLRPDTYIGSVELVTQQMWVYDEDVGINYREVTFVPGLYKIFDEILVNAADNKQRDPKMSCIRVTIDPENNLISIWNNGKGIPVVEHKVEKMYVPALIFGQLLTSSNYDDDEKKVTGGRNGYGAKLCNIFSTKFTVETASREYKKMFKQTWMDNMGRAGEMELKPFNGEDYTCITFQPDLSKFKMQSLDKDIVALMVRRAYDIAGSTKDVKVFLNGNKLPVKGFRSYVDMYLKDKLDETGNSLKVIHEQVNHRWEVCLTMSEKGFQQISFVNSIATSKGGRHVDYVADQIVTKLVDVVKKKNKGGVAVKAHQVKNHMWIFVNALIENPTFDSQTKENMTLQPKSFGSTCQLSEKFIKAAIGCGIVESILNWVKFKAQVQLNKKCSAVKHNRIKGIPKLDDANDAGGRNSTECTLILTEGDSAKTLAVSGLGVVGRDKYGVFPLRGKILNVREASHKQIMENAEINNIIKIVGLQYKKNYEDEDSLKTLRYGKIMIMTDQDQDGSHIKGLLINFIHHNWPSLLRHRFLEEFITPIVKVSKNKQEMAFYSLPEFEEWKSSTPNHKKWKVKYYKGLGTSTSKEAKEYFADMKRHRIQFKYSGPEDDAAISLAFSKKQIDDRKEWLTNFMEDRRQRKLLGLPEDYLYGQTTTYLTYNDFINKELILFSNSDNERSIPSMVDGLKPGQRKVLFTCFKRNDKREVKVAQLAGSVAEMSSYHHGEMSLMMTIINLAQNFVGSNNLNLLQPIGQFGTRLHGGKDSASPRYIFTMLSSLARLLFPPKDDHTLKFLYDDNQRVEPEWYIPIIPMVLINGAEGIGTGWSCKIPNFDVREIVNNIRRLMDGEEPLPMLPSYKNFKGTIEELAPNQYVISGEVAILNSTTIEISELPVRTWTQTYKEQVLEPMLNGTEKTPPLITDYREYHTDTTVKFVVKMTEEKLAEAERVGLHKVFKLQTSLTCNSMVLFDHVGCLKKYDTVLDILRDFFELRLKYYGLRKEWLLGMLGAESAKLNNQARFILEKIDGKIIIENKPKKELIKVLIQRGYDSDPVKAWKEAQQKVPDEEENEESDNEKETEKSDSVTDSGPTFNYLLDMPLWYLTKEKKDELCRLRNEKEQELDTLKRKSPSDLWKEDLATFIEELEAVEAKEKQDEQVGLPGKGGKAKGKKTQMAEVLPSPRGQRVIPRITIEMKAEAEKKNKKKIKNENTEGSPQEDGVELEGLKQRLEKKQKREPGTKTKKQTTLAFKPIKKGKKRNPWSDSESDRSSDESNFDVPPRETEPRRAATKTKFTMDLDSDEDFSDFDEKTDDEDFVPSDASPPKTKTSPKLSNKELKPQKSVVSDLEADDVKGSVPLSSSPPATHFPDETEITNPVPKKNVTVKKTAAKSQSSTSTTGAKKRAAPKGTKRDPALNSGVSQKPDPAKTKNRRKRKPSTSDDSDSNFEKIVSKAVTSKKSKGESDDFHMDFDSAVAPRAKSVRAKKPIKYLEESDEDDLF

[2] = system: CV-1; experiment: Inhibition of replicative DNA polymerase epsilon in SV40 virus infected african green monkey CV1 cells; settings: Chlorocebus aethiops
[3] = system: CV-1; experiment: Inhibition of replicative DNA polymerase […] in SV40 virus infected african green monkey CV1 cells; settings: Chlorocebus aethiops
[4] = system: CV-1; experiment: Inhibition of replicative DNA polymerase gamma in SV40 virus infected african green monkey CV1 cells; settings: Chlorocebus aethiops

IC50 [1]: 404 µM
Compound: O=c1ccc2c(ccc3ccoc32)o1 [BAKUCHICIN]

Activity [1]: inactive
Compound: CC(C)=CCc1cc(-c2coc3cc(O)ccc3c2=O)ccc1O

Activity [1]: inactive
Compound: O=c1ccc2cc3ccoc3cc2o1

Compound: C=C[C@@](C)(/C=C/c1ccc(O)cc1)CCC=C(C)C
Activity [2]: Active
Activity [3]: inactive
Activity [4]: inactive
